# Entries after “also recorded” stand apart in the source; their conditions may differ.
# Experiments:
# intestinal βG activity = test: In vivo image of intestinal β-glucuronidase activity (FDGlcU pro-probe); design: species or system Balb/cJ mice; conditions: mice
# Method: 17 (TCH-3511) or 32 (TCH-3510) was examined for its inhibition against intestinal βG activity in mice by in vivo image of eβG activity. 5 (TCH-3562), 17 (TCH-3511) or 32 (TCH-3510) was dissolved in ddH2O. Healthy 6-10 week old female Balb/cJ mice were oral administrated with 5 (TCH-3562), 17 (TCH-3511), 32 (TCH-3510) or ddH2O per day (60 μg/200 μl) for five consecutive days. FDGlcU, a βG fluorescent pro-probe was oral feed at the sixth day. The βG activity was detected by in vivo optical imaging system.
# [1] = target: E. coli β-glucuronidase (eβG) (Escherichia coli, UniProt P05804); test: Inhibition of purified recombinant eβG activity (pNPG substrate, OD420); type: biochemical
# Method: (§1) The pyrazolo[4,3-c]quinoline derivatives were examined for their inhibition against eβG or hβG activity. Purified recombinant eβG or hβG proteins were incubated with serial dilution of the inhibitors, respectively. The βG activity was determined by color development of a βG substrate, pNPG. The hydrolysis product of pNPG, PNP was measured by OD420.
# CPT-11 induced diarrhea = CPT-11 induced diarrhea in tumor-bearing mice; type: in vivo, Balb/cJ mice; conditions: 3 mg/kg/day oral with CPT-11 50 mg/kg/day i.p.; CT26 tumor-bearing mice (FIG. 6A)
# Method: (§2) FIGS. 6A and B show the effects of 17 (TCH-3511) on diarrhea and antitumor activity of CPT-11. Mice were inoculated with CT26 cells on day −7. Either water or 17 (TCH-3511) 3 mg/kg/day was orally administrated per day throughout the experimental period (day 0 onward). Mice were given daily intraperitoneal either CPT-11 treatment (50 mg/kg/day) or saline staring on day 2. Diarrhea level and tumor size was scored every other day.
# (§3) 17 (TCH-3511) was given to mice to test whether inhibition of intestinal βG by bacterial inhibitor 17 (TCH-3511) eliminates CPT-11-induced diarrhea and maintain the therapeutic efficacy in combination with CPT-11 in tumor-bearing mice. CT26 murine colon adenocarcinoma cells were s.c. implanted into Balb/cJ mice. After solid tumor formed, 17 (TCH-3511) (3 mg/kg/day) was provided orally along with intraperitoneal injection of CPT-11 (50 mg/kg/day). Signs of diarrhea were according to stool forms and the perianal staining of the anus.
# [2] = target: T1, human liver-glucuronidase (hβG) (Homo sapiens, UniProt P08236); test: Inhibition of purified recombinant hβG activity (pNPG substrate, OD420); type: biochemical; conditions: 10 μM; purified recombinant hβG, pNPG; means ± S.D. of at least three separate experiments; read-out: Percent activity of human liver-glucuronidase at 10 μM (%)
# T1 sequence (P08236 23-651): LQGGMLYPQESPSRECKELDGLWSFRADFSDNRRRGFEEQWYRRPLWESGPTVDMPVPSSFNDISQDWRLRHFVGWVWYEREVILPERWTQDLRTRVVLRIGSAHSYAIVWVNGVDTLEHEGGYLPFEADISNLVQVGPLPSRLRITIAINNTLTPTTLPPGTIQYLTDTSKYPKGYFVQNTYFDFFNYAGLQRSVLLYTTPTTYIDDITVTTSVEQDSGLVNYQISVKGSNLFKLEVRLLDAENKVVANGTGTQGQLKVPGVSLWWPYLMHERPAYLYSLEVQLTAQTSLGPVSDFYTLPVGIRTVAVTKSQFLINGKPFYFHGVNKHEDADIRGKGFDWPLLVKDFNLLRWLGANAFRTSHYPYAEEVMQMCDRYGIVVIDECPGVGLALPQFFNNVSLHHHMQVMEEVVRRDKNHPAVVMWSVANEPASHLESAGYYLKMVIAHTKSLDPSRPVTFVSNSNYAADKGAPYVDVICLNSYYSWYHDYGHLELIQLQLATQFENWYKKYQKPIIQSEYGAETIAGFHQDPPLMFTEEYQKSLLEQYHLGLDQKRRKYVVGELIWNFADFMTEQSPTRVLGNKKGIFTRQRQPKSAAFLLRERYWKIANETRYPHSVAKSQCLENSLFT
# Method: as §1
# TOP10 E. coli cells = test: E. coli growth assay (OD600); type: cell-based; conditions: 100 μM; OD600 at 6 hour after treatment; TOP10 E. coli (FIG. 4)
# Method: The pyrazolo[4,3-c]quinoline derivatives were examined for effects on the growth of E. coli. TOP10 E. coli cells were grown to an OD600 of 0.35 in LB medium and treated with each inhibitor. E. coli cell cultures were monitored by reading OD600 at 6 hour after treatment. The cell viability were compared to non-inhibitor control group and shown in % control.
# endogenous eβG activity = target: T2, endogenous eβG activity (Escherichia coli, UniProt P05804); test: Endogenous β-glucuronidase activity assay in BL21 E. coli cells; type: cell-based; conditions: at both low (10 μM) or high concentration (50 μM) (FIG. 2)
# T2 construct: endogenous in cells; host or cells: BL21 E. coli
# Method: The pyrazolo[4,3-c]quinoline derivatives were examined for their inhibition against endogenous eβG activity. This assay is similar with the in vitro assay. BL21 E. coli cells were grown to an OD600 of 0.35 in LB medium. E. coli were 4 times diluted and incubated with each inhibitor. The endogenous eβG activity was measured by detecting PNP as described.
# [3] = tested on: DMH induced tumorigenesis in the intestine; test: DMH induced tumorigenesis in the intestine; type: in vivo, C57BL/6J-APC^MIN/J mice
# Method: Either water or 17 (TCH-3511) 3 mg/kg/day was orally administrated three times per week throughout the experimental period (8 week). Mice were given intraperitoneal DMH (30 mg/kg/week).
# 17 (TCH-3511) was given to C57BL/6J-APC^MIN/J mice to check whether prevent DMH-induced intestinal damage and tumorigenesis. 17 (TCH-3511) (3 mg/kg, 3 times/week) was provided orally along with intraperitoneal injection of DMH (30 mg/kg, once/week). After 8 weeks of treatment, mice were sacrificed and the tumor in the intestine was examined.
# [4] = tested on: CT26 murine colon adenocarcinoma cells; test: Anti-tumor efficacy of CPT-11 in CT26 tumor-bearing mice; type: in vivo, Balb/cJ mice; conditions: 3 mg/kg/day oral with CPT-11 50 mg/kg/day i.p.; CT26 tumors (FIG. 6B)
# Method: as §2, §3
# Sequence of E. coli β-glucuronidase (eβG) (P05804 whole entry): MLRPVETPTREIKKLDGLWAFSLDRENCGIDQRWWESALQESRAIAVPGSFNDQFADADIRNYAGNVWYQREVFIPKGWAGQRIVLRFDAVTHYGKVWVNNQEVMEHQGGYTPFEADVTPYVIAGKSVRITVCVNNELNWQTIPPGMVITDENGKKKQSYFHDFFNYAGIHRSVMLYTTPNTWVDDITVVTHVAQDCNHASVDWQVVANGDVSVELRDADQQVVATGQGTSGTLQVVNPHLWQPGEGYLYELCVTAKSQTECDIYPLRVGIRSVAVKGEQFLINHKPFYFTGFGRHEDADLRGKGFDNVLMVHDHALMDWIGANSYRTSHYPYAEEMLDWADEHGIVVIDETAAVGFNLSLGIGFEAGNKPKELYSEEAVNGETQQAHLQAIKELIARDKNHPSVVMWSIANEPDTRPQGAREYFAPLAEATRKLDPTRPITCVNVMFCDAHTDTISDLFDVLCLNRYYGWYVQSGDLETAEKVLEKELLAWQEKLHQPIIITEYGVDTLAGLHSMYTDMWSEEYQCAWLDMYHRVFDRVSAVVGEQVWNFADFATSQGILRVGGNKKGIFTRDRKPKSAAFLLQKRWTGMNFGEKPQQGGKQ
# T2 sequence (P05804 whole entry): as above
structure (smiles),measurement,setting,value
"Nc1n[nH]c2c1c(Nc1ccc(F)cc1)nc1ccccc12 [Compound 17, 3-Amino-4-(4-fluorophenylamino)-1H-pyrazolo[4,3-c]quinoline]","Inhibition of intestinal βG activity, comparison between compounds",intestinal βG activity; in vivo optical imaging (FIG. 5B),better than 32 (THC-3510)
same,Inhibition of intestinal βG activity (fluorescence signal in the intestine),"intestinal βG activity; oral 60 μg/200 μl per day for five days, FDGlcU on sixth day (FIG. 5A), listed as 17 (TCH-3511)",significantly reduced the fluorescence signal in the intestine; also recorded: significantly inhibit intestinal βG activity
same,Inhibition efficacy of eβG activity compared with βG-Inh,[1]; FIG. 1,better inhibition efficacy of eβG activity than βG-Inh
same,remaining activity at 10 µM,[1]; read-out: Percent activity of E. coli-glucuronidase at 10 μM (%),5 ± 1%
same,Selective inhibition of eβG versus hβG (in words),"[1]; recombinant eβG and hβG, serial dilution of inhibitors (FIG. 1)",selectively inhibited eβG activity but not hβG
same,Effect on CPT-11 induced diarrhea,CPT-11 induced diarrhea,can reduce CPT-11 induced diarrhea
same,remaining activity at 10 µM,[2],99 ± 1.41%
same,Effects on E. coli growth,TOP10 E. coli cells,no effects on E. coli growth
same,Inhibition efficacy of endogenous eβG activity compared with βG-Inh,endogenous eβG activity,better inhibition efficacy of endogenous eβG activity than βG-Inh
same,Number of tumors in the intestine,"[3]; 3 mg/kg oral 3 times/week with DMH 30 mg/kg i.p. once/week, after 8 weeks (FIG. 7), DMH only group more than 26",six
same,Effect on DMH-induced intestinal damage and tumorigenesis,"[3]; 3 mg/kg oral 3 times/week with DMH 30 mg/kg/week i.p., 8 weeks (FIG. 7), listed as 17 (TCH-3511)",can reduce DMH-induced intestinal damage and prevent tumorigenesis
same,melting point,,266 to 268 °C
same,Effect on anti-tumor efficacy of CPT-11 treatment,[4],no effects on the anti-tumor efficacy of CPT-11 treatment
